Data taken from patent US4785017A, “3,4-dihydro-2H-1-benzopyran derivatives” (Hoffmann-La Roche Inc., priority 1984, dated 1988).

How the values were obtained:
[1] = test system: leukotriene D4 induced bronchoconstriction; assay: Guinea Pig Bronchoconstriction, In Vivo (Aerosol), leukotriene D4 challenge; design: species or system guinea pig (Hartley strain); conditions: aerosol assay with leukotriene E4 replaced with leukotriene D4
[2] = test system: leukotriene E4 induced bronchoconstriction; assay: Guinea Pig Bronchoconstriction, In Vivo (Aerosol), leukotriene E4 challenge; design: species or system guinea pig (Hartley strain); conditions: five minute aerosol exposure (% w/v aerosol solution); maximum constrictory dose of leukotriene E4 i.v.; propanolol pretreatment
Description: (b) Guinea Pig Bronchoconstriction, In Vivo (Aerosol):
Male guinea pigs (Hartley strain) weighing 300 to 500 g are anesthetized with urethane (2 g/kg) intraperitoneally and a polyethylene cannula is inserted into the jugular vein for drug administration. Tracheal pressure is recorded from a cannula inserted in the trachea and connected to a Statham pressure transducer. After surgical preparation of the animals, a period of time is allowed for pulmonary functions to stabilize. The test compound is administered according to the following protocol. Propanolol (0.1 mg/kg) is administered intravenously while the animals breathed spontaneously. Five minutes thereafter, the animals are exposed for a five minute period to a 1% (w/v) aerosol solution of test compound (adjusted to an alkaline pH where necessary for drug solubilization) or to distilled water of the appropriate pH (for control purposes). A Monaghan (Model 750) ultrasonic nebulizer is used to administer all test compounds by inhalation. The nebulizer ultrasonic frequency is adjusted to produce particles in the 1-8μ diameter range (average 3μ). Aqueous solutions are prepared freshly and introduced into the chamber of the nebulizer. The output of the nebulizer is made available to the animal by directing a bias flow of aerosol through a Y tube connected to the tracheal cannula. At the end of the exposure period, the animals are paralyzed with succinylcholine (1.2 mg/kg, i.v.) and mechanically respirated (Harvard rodent respirator) at 40 breaths/minute and 2.5 cc tidal volume. Animals are then challenged with a maximum constrictory dose of leukotriene E4 delivered intravenously 30 seconds after administration of the succinylcholine.
The change (cm H2 O) between pre and peak ventilatory pressure readings averaged for three control animals and five drug treated animals. The percent inhibition is calculated from the following formula: [formula] When various drug concentrations are tested, the percent inhibition at each concentration is plotted as log concentration (abscissa) versus percent inhibition (ordinate) and the IC50 is determined from linear regression analysis.

[3] = test system: SRS-A-induced constriction of the guinea pig ileum; assay: Guinea Pig Ileum, In Vitro: inhibition of SRS-A-induced constriction (SRS-A antagonism); conditions: SRS-A antagonism; SRS-A at EC50, 37° C., with atropine sulfate and pyrilamine maleate; read-out: In vitro Guinea Pig ileum IC50
Description: (a) Guinea Pig Ileum, In Vitro:
The guinea pig ileum bioassay system has been described by Orange Austen, Adv. Immunol. […] A 1.5 cm segment is removed from animals weighing 300-400 g and suspended in an organ bath containing 10 ml of Tyrodes solution with 10^-6 M atropine sulfate and 10^-6 M pyrilamine maleate. […] The SRS-A utilized in this screen is obtained by challenging chopped lung fragments from actively sensitized guinea pigs with egg albumin, in vitro. A dose-response curve to SRS-A challenge is established for the ileum. […] The drug concentration which inhibits, by 50%, the SRS-A-induced constriction of the guinea pig ileum is determined.

[4] = test system: leukotriene D4 induced bronchoconstriction; assay: Oral Testing of Leukotriene Antagonists, leukotriene D4 challenge; assay type: in vivo, guinea pig (Hartley strain, Charles River); conditions: 10 mg/kg by the oral route, two hours prior to challenge with leukotriene D4
Description: (c) Oral Testing of Leukotriene Antagonists
Male guinea pigs (Hartley strain, Charles River) weighing 400 to 600 g were anesthetized with urethane (2 g/kg) intraperitoneally and a polyethylene cannula was inserted into the jugular vein for intravenous drug administration. Tracheal pressure (cm water) was recorded from a Statham pressure transducer. After surgical preparation of the animals, a period of time was allowed for spontaneous breathing to stabilize. […] Two minutes later, spontaneous breathing was arrested with succinylcholine chloride (1.2 mg/kg, i.v.) and the animals ventilated with a Harvard (Model #680) small animal respirator set at 40 breaths per minute and 4.0 cc stroke volume. The animals were challenged with a maximum constrictory does of either leukotriene C4 or leukotriene D4 or leukotriene E4 (25 ug/kg, i.v.) at 5 minutes. Control vehicle or test drug (adjusted to an alkaline pH where necessary for drug solubilization) was administered (10 mg/kg, p.o.) two hours prior to challenge with leukotriene. In order to determine the ID50 for a test drug, the dose is varied from 10 mg/kg, p.o. to 100, 50, 30, 20, 5, 3 and 1 mg/kg, p.o.
In order to determine oral duration of action, the time between exposure to test drug and challenge with leukotriene is varied.

IC50 value in inhibiting bronchoconstriction (aerosol) [1] [%]	Guinea Pig Bronchoconstriction In vivo aerosol - IC50(%) [2] [%]	IC50 [3] [nM]	SMILES	inhibition of leukotriene D4 induced bronchoconstriction [4] [%]
0.0056	0.052	60	CCCc1c(OCCCCCOc2cc3c(cc2C(C)=O)CCC(C(=O)O)O3)ccc(C(C)=O)c1O (racemic) [racemic-6-acetyl-7-[5-(4-acetyl-3-hydroxy-2-propylphenoxy)pentyloxy]-3,4-dihydro-2H-1-benzopyran-2-carboxylic acid]	–
–	–	–	CCCc1c(OCCCCCOc2cc3c(cc2C(C)=O)CCC(CCCCC(=O)O)O3)ccc(C(C)=O)c1O (racemic) [racemic-6-acetyl-7-[5-(4-acetyl-3-hydroxy-2-propylphenoxy)pentyloxy]-3,4-dihydro-2H-1-benzopyran-2-pentanoic acid]	46±14
–	0.71	500	CCCc1c(OCCCOc2ccc3c(c2CCC)OC(C)(CCC(=O)O)CC3)ccc(C(C)=O)c1O (racemic) [racemic-7-[3-(4-acetyl-3-hydroxy-2-n-propylphenoxy)propoxy]-3,4-dihydro-2-methyl-8-n-propyl-2H-1-benzopyran-2-propanoic acid]	–
–	0.14	60	CCCc1c(OCCCOc2ccc3c(c2)OC(C(=O)O)CC3)ccc(C(C)=O)c1O (racemic) [racemic-7-[3-(4-acetyl-3-hydroxy-2-propyl)phenoxy)propoxy]-3,4-dihydro-2H-1-benzopyran-2-carboxylic acid]	–
–	0.20	100	CCCc1c(OCCCOc2ccc3c(c2CCC)OC(C(=O)O)CC3)ccc(C(C)=O)c1O (racemic) [racemic-7-[3-(4-acetyl-3-hydroxy-2-propyl)phenoxy)propoxy]-3,4-dihydro-8-propyl-2H-1-benzopyran-2-carboxylic acid]	–
–	> 1.0	100	CCCc1c(OCCCOc2ccc3c(c2)OC(C)(CCC(=O)O)CC3)ccc(C(C)=O)c1O (racemic) [racemic-7-[3-(4-acetyl-3-hydroxy-2-propylphenoxy)propoxy]-3,4-dihydro-2-methyl-2H-1-benzopyran-2-propanoic acid]	–
–	0.67	100	CCCc1c(OCCCOc2ccc3c(c2)OC(CC(=O)O)CC3)ccc(C(C)=O)c1O (racemic) [racemic-7-[3-(4-acetyl-3-hydroxy-2-propylphenoxy)propoxy]-3,4-dihydro-2H-1-benzopyran-2-acetic acid]	–
–	1.0	500	CCCc1c(OCCCOc2cc3c(cc2C(C)=O)OC(C)(C(=O)O)CC3)ccc(C(C)=O)c1O (racemic) [racemic-7-acetyl-6-[3-(4-acetyl-3-hydroxy-2-propylphenoxy)propoxy]-3,4-dihydro-2-methyl-2H-1-benzopyran-2-carboxylic acid]	–
–	0.34	200	CCCc1c(OCCCOc2cc3c(cc2C(C)=O)OC(C(=O)O)CC3)ccc(C(C)=O)c1O (racemic) [racemic-7-acetyl-6-[3-(4-acetyl-3-hydroxy-2-propylphenoxy)propoxy]-3,4-dihydro-2H-1-benzopyran-2-carboxylic acid]	–
–	0.59	300	CCCc1c(OCCCOc2ccc3c(c2C(C)=O)OC(C(=O)O)CC3)ccc(C(C)=O)c1O (racemic) [racemic-8-acetyl-7[3-(4-acetyl-3-hydroxy-2-propylphenoxy)propoxy]-3,4-dihydro-2H-1-benzopyran-2-carboxylic acid]	–
0.018	–	100	CCCc1c(OCCCCCOc2cc3c(cc2C(C)=O)CC[C@H](C(=O)O)O3)ccc(C(C)=O)c1O [(R)-6-acetyl-7-[5-(4-acetyl-3-hydroxy-2-propylphenoxy)pentyloxy]-3,4-dihydro-2H-1-benzopyran-2-carboxylic acid]	–
0.0018	–	60	CCCc1c(OCCCCCOc2cc3c(cc2C(C)=O)CC[C@@H](C(=O)O)O3)ccc(C(C)=O)c1O [(S)-6-acetyl-7-[5-(4-acetyl-3-hydroxy-2-propylphenoxy)pentyloxy]-3,4-dihydro-2H-1-benzopyran-2-carboxylic acid]	–
